Source: patent publication US20200253979A1, “THERAPEUTIC METHODS RELATING TO HSP90 INHIBITORS” (AI Therapeutics, Inc., priority 2017, published 2020)

Experiments:
[1] = test system: phospho-S6 in MV-4-11 cells; assay: Phospho-S6 by flow cytometry; type: cell-based; conditions: MV-4-11, 1 μM, 24 hours
Experimental: (§1) To determine whether MPC-0767 can promote the degradation of FLT3-ITD and abolish downstream signaling, MV-4-11 and MOLM-13 cells were treated with vehicle or MPC-0767 (1 μM) for 24 hours. Cells were harvested for flow cytometry to assess cell surface FLT3 protein abundance. In addition, the measurement of a key phosphorylation site of S6 (phospho-S6) was used as a marker for oncogenic FLT3-ITD signaling (Zimmerman et al., Blood. 2013 122(22): 3607-3615). Indeed, in both MV-4-11 and MOLM-13 cells treated with MPC-0767 there was a >65% reduction in cell surface FLT3 (FIGS. 10A and 10B, respectively) and >70% reduction in phospho-S6 (FIGS. 10C and 10D, respectively).

[2] = test system: cell surface FLT3 in MV-4-11 cells; assay: Cell surface FLT3 by flow cytometry; type: cell-based; conditions: MV-4-11, 1 μM, 24 hours
Experimental: as §1

[3] = test system: MOLM-13-R-PKC412 (midostaurin-resistant) cells; assay: CellTiter-Glo cell viability; type: cell-based, human
Description: In the clinic, tyrosine kinase inhibitors that target FLT3 initially show positive responses, but patients inevitably relapse due to the development of drug-resistance through various mechanisms, as discussed above.

Parental BaF3 cells = assay: CellTiter-Glo cell viability; type: cell-based, murine; conditions: Mus musculus; parental BaF3, 72 hours
Description: (§2) To determine whether MPC-0767 can also promote degradation of an EGFR exon20ins mutant, the BaF3 murine cell line was used (Warmuth et al., Curr Opin Oncol., 200719: 55-60). This cell line is dependent upon exogenous IL-3 for survival/growth but upon introduction of an oncogene, the cells no longer depend on exogenous IL-3, and instead survival is driven by the introduced oncogene. Thus, drugs that target the introduced oncogene will reduce BaF3 cell viability providing a mechanism to screen small molecules against relevant oncogenic mutations that arise in the clinic.
(§3) BaF3 cells harboring EGFR wild type (WT) or EGFR exon20 V769_D770insASV mutant were treated with increasing concentrations of MPC-0767 for 24 hours. After this time, cells were harvested for flow cytometry to assess cell surface EGFR expression (antibody for detection recognized both WT and mutant proteins). […] We further tested whether this finding translated to reduced survival in BaF3 cells expressing the EGFR mutant. Parental BaF3 cells (no mutant) or cells harboring EGFR exon20 V769_D770insASV were treated with increasing concentrations of MPC-0767 for 72 hours after which cell viability was determined using CellTiter-Glo®.

[4] = test system: BaF3 cells harboring EGFR exon20 V769_D770insASV; assay: CellTiter-Glo cell viability; type: cell-based, murine
Description: as §2, §3

H1975 cells = assay: 7-AAD / annexin V cell death staining; type: cell-based; conditions: 0.7 μM, 72 hours
Experimental: To verify the mechanism of the loss of cell viability, H1975 cells were treated with MPC-0767 (0.7 μM) for 72 hours. After this time, cells were stained with 7-amino-actinomycin D (7-AAD) and annexin V, markers of cell membrane integrity and of apoptosis, respectively.

[5] = test system: PD-L1 on primary AML patient samples; assay: PD-L1 cell surface expression by flow cytometry; type: cell-based, human; conditions: 24 hours
Experimental: To study whether MPC-0767 blocks IFN-γ-induced PD-L1 expression, six AML patient samples harboring FLT3 WT (n=2) or FLT3-ITD (n=4) were treated with human IFN-γ (50 ng/ml) alone, MPC-0767 (1 μM) alone or the combination of the two for 24 hours. Cells were then harvested to assess PD-L1 cell surface expression by flow cytometry. Cells were also stained with the AML blast markers CD34 or CD45 (to gate on the blast population) and a viability stain to gate on viable cells.

[6] = test system: PD-L1 on tumor infiltrating leukocytes (CD45+, CD3−); assay: PD-L1 on tumor infiltrating leukocytes in MC38 tumors; type: in vivo, mouse; conditions: 150 mg/kg QD×7
Experimental: To test if MPC-0767 may induce an anti-tumor immune response in addition to direct cytotoxic activity, down regulation of PD-Ll and the effector/regulatory T-cell ratio was measured in the same MC38 syngeneic model. On day 21, when the average tumor volume was 372 mm^3 in size, a second group of mice (n=6) was treated with 150 mg/kg MPC-0767 QD×7. One day post the last dose (day 28 post inoculation) tumors were harvested from the vehicle and 150 mg/kg MPC-0767 QD×7 group. Tumor infiltrating leukocytes (CD45^+, CD3^−) within the dissociated tumors were analyzed for PD-L1 expression by flow cytometry.

MOLM16 cells = assay: CellTiter-Glo cell viability; type: cell-based; conditions: MOLM16, 72 h
[7] = test system: NSCLC cell lines HCC-827, H1975, PC-9 and H1781; assay: CellTiter-Glo cell viability in NSCLC cell lines; type: cell-based; conditions: 98-50000 nM, 3 days; HCC-827, H1975, PC-9, H1781
Experimental: The NSCLC cell lines HCC-827 (EGFR L858R), H1975 (EGFR L858R/T790M) PC-9 (EGFR Del E746_A750) and H1781 (HER2 G7776insV G/C) were treated with MPC-0767 at a concentration range of 98-50000 nM for 3 days, after which time cell viability was determined using CellTiter-Glo® reagent.

[8] = test system: cell surface FLT3 in MOLM-13 cells; assay: Cell surface FLT3 by flow cytometry; type: cell-based, human; conditions: 24 hours
Experimental: as §1
We next explored whether the synergistic activity of MPC-0767 and ATO was due to a more complete abrogation of FLT3-ITD oncogenic signaling. […] After this time cells were harvested for the assessment of cell surface FLT3 expression by flow cytometry. To additionally measure the effects of abrogating FLT3, we assessed phospho-ERK (pERK) and phospho-S6 (pS6), as these are two known downstream effectors.

THP1 (THP-1) cells = assay: CellTiter-Glo cell viability (single agent and combination); type: cell-based; conditions: THP1, 72 h

## C[C@H](N)C(=O)O[C@@H](C)C(=O)N1CCC(CCn2c(Sc3cc4c(cc3Br)OCO4)nc3c(N)ncnc32)CC1 [MPC-0767]
[1]
  reduction in phospho-S6: > 70%
[2]
  reduction in cell surface FLT3: > 65%
[3]; Homo sapiens, MOLM-13-R-PKC412, 72 hours
  EC50: 727 nM
[3]; MOLM-13-R-PKC412 vs MOLM-13-LUC
  fold difference in EC50, midostaurin-resistant vs control cells: less than 1.5 fold
Parental BaF3 cells
  EC50: 753 nM
[4]; Mus musculus, BaF3 EGFR exon20 V769_D770insASV, 72 hours
  EC50: 236 nM
[4]; mutant vs parental BaF3, 72 hours
  sensitivity to MPC-0767 relative to parental cells: approximately 3 times
H1975 cells
  percentage of cells displaying markers of cell death: increase
  percentage of viable cells (7-AAD negative and annexin V negative): decrease
[5]; MPC-0767 1 μM alone
  basal PD-L1 cell surface expression: did not significantly reduce basal PD-L1 cell surface expression
[5]; MPC-0767 1 μM with IFN-γ 50 ng/ml, P=0.04
  IFN-γ-induced PD-L1 cell surface expression: significantly reduced the IFN-γ-induced PD-L1 cell surface expression
[6]
  PD-L1 expression on tumor infiltrating leukocytes: significant reduction of PD-L1
MOLM16 cells
  EC50: 367 nM
  MPC-0767 Sensitivity: Sensitive (cell lines having EC50 values below 1 μM were considered to be sensitive)
[7]
  EC50 (cell viability): within clinically achievable concentrations
[8]; MOLM-13, 1 μM
  reduction in cell surface FLT3: > 65%
[8]; MOLM-13, MPC-0767 800 nM, ATO 625 nM or combination
  FLT3 level (cell surface): reduced
THP1 (THP-1) cells; Homo sapiens, THP-1
  EC50: > 10000 nM
THP1 (THP-1) cells
  MPC-0767 Sensitivity: Resistant (EC50 values above 1 μM considered resistant)
